# Measurements published in US9994901B2, “Pro-inflammatory mediators in diagnosis and treatment of chronic obstructive pulmonary disease” (The Regents of the University of Colorado, priority 2012, dated 2018).
# What was measured:
# [1] = tested on: human PB monocytes; assay: Human PB monocytes cultured on fibronectin 48 hrs, conditioned media ELISA (FIG. 3); format: cell-based; conditions: human PB monocytes (n=6) on fibronectin 48 hrs, PTA2 added; ELISA of conditioned media
# Procedure: FIG. 3. […] Fibronectin (FN) induces pro-inflammatory mediator in human PB monocytes. Monocytes (n=6) were cultured on plastic (ctl) or fibronectin (FN) for 48 hrs. Pinane thromboxane A2 (PTA2), a thromboxane receptor antagonist, was added to some FN cultures. Conditioned media was analyzed for indicated mediators by ELISA. *P<0.05 Students two tailed t-test compared to plastic.
# In particular, murine macrophages promote inflammation via a signaling pathway that depends on thromboxane receptor signaling and that is repressed by ARHGEF1. Monocytes from a healthy individual similarly promote inflammation, as indicated by MMP-9, TNFα and MCP-1 production, and this is inhibited by a (commercially available research grade) thromboxane receptor antagonist (FIG. 3).
# To facilitate this analysis, we used an ELISA-based platform developed by Meso Scale Discovery (MSD), Gaithersburg, Md. USA (www.mesoscale.com) that allows a multiplex format for the analysis of pro-inflammatory cytokines, chemokines, and matrix metalloproteases. This platform relies on proprietary detection and patterned arrays in a 96-well format and that has an extremely large dynamic range enabling detection of these pro-inflammatory mediators from both biological samples (BAL fluid, serum, etc.) and tissue culture supernatant. An MSD plate reader (Sector Imager 2400) was used.
# [2] = tested on: Arhgef1-/- animals; assay: Arhgef1-/- animals, inhalation of PTA2, BAL supernatant ELISA (FIG. 11); format: in vivo, mouse; conditions: ELISA 24 hr after a 1 hr inhalation exposure, vs vehicle
# Procedure: FIG. 11. Panels A and B graphically depict the measurement of BAL pro-inflammatory mediators by ELISA in Arhgef1 deficient animals treated by inhalation of PTA2 or vehicle. […] Pro-inflammatory mediators were measured in BAL supernatant 24 hr after a 1 hr inhalation exposure to either vehicle (black bars on left sides, n=16) or PTA2 (grey bars on right sides, n=3).
# (§1) Treatment with a thromboxane receptor antagonist decreases the expression of pro-inflammatory mediators.
# [3] = tested on: COPD patient monocytes; assay: COPD patient peripheral blood monocytes cultured on fibronectin, IL-8 production (FIG. 15); format: cell-based, human
# Procedure: FIG. 15. […] Graphically depicted are the results from treating human monocytes cultured on fibronectin with two different TP antagonist. […] Some fibronectin cultured cells were treated with the thromboxane receptor antagonist Pinane Thromboxane (PTA2). For PTA2 treatment, the concentration utilized is 7.5 μM.
# Some fibronectin cultured cells were treated with the thromboxane receptor antagonist Pinane Thromboxane (PTA2). For PTA2 treatment, the concentration used was 7.5 μM.
# [4] = tested on: Arhgef1-/- mice; assay: Arhgef1-/- mice treated with TP antagonist, RT-PCR of BAL cells and lung tissue (FIGS. 9, 10); format: in vivo, mouse; conditions: time course, single dose
# Description: Arhgef1 is an intracellular signaling molecule which has been shown specifically to modulate signaling from Gα12/13 coupled receptors. […] We have identified that thromboxane receptor signaling is required for fibronectin induced MMP-9 expression in wild type and Arhgef1-deficient cells. Treatment of Arhgef1-deficient mice with a thromboxane receptor antagonist results in a consistent and reproducible reduction in MMP-9 expression and activity in the pulmonary compartment. […] Importantly treatment with a thromboxane receptor antagonist decreased expression of all of these mediators in the Arhgef1-deficient lungs. These findings were unexpected.
# as §1
# [5] = tested on: human monocytes; assay: Human monocytes cultured on fibronectin, IL-6 by ELISA (FIG. 12); format: cell-based; conditions: FN+20 mM aspirin vs FN
# Description: Experiments summarized in the top of FIG. 12 show culture of human monocytes on fibronectin (FN) induces several pro-inflammatory mediators as measured by ELISA.
structure (smiles),measurement,setting,value
"CCCCC[C@@H](O)/C=C/[C@H]1C[C@H]2C[C@@H]([C@@H]1C/C=C\CCCC(=O)O)C2(C)C (relative stereo) [PTA2, (1S-(1alpha,2beta(Z),3alpha(1E,3S*),5alpha))-7-(3-(3-Hydroxy-1-octenyl)-6,6-dimethylbicyclo(3.1.1)hept-2-yl)-5-heptenoic acid]",FN induced MCP-1,[1],dependent on TP signaling
same,FN induced TNF-,[1],dependent on TP signaling
same,production of several pro-inflammatory mediators in BAL supernatant,[2],reduces production of several pro-inflammatory mediators
same,IL-8 production,"[3]; monocytes from 3 COPD patients on fibronectin, PTA2 7.5 μM",reduce IL-8 production
"Cc1c(CC(C)(C)C(=O)O)n(Cc2ccc(Cl)cc2)c2ccc(F)cc12 [L655, 1-[(4-Chlorophenyl)methyl]-5-fluoro-α,α,3-trimethyl-1H-indole-2-propanoic acid]","expression of several pro-inflammatory mediators, RT-PCR of BAL cells",[4],decreases expression of several pro-inflammatory mediators
same,"expression of several pro-inflammatory mediators, RT-PCR of lung tissue",[4],decreases expression of several pro-inflammatory mediators
"CC1=C(C)C(=O)C(C(CCCCCC(=O)O)c2ccccc2)=C(C)C1=O (centres unmarked) [Seratrodast, 7-phenyl-7-(2,4,5-trimethyl-3,6-dioxocyclohexa-1,4-dien-1-yl)heptanoic acid]",IL-8 production,"[3]; monocytes from a COPD patient on fibronectin, Seratrodast 0.448, 2.24, 11.2 μM",reduce IL-8 production
CC(=O)Oc1ccccc1C(=O)O [aspirin],FN induced IL-6 production,[5],reduced
